The nature of data set [1]: dissolution properties compared with the known forms. Format: physicochemical.
The nature of data set [2]: stability of the crystalline form. Format: physicochemical.

Data on two compounds can be found in patent publication US8466279B2, “Polymorphs of efavirenz” (Hetero Drugs Limited, priority 2004, dated 2013).

Turning to `O=C1Nc2ccc(Cl)cc2[C@@](C#CC2CC2)(C(F)(F)F)O1` [amorphous efavirenz, (4S)-6-chloro-4-(cyclopropylethynyl)-1,4-dihydro-4-(trifluoromethyl)-2H-3,1-benzoxazin-2-one], the dissolution properties entry in data set [1] is recorded as “better dissolution properties”.

Turning to `O=C1Nc2ccc(Cl)cc2[C@@](C#CC2CC2)(C(F)(F)F)O1` [efavirenz form H1, (4S)-6-chloro-4-(cyclopropylethynyl)-1,4-dihydro-4-(trifluoromethyl)-2H-3,1-benzoxazin-2-one], the “stability over the time” value in data set [2] is given as “stable over the time”. For the same compound, the “stability relative to reported forms” value in data set [2] (versus Form I, Form II, Form III, Form 1, Form 2, Form 3, Form 4 and Form 5) is “at least as stable as the reported forms”.
